Assay results reported in patent publication US9783592B2 (priority 2010, dated 2017).

Experiments:
[1] = biological target: T1, GLP-1 receptor (Homo sapiens, UniProt P43220); assay: GLP-1 activity (cAMP induction), CRE-luciferase reporter assay in HEK293 cells; assay type: cell-based; conditions: read-out: GLP-1 EC50; Example 22; HEK293 cells co-transfected with GLP-1 receptor and CRE-luciferase
T1 construct: expressed in transfected cells; host or cells: HEK293

[2] = biological target: T1, GLP-1 receptor; assay: GLP-1 binding, [I125]-GLP-1 SPA with receptor membrane extracts; conditions: read-out: GLP-1 IC50, Example 22, GLP-1 receptor cell membrane extracts
[3] = Example 20: DIO mice, daily s.c. dosing; assay type: in vivo
[4] = biological target: T2, ERα (Homo sapiens, UniProt P03372); conditions: read-out: ERα IC50; purified ERα, [I125]-estradiol
[5] = biological target: T2, ERα; assay type: cell-based; set-up: T47D cells transfected with the luciferase gene fused to the estrogen response element (ERE); endogenous in cells; host or cells: T47D; conditions: T47D cells, ERE-luciferase
[6] = Stability analysis in human plasma (estrogen release); assay type: in vitro ADME; conditions: 1 mg/mL, 100% human plasma, pH 7.4, 37° C.
[7] = solubility in aqueous solution; assay type: physicochemical
[8] = biological target: T3, glucagon receptor (Homo sapiens, UniProt P47871); assay: glucagon antagonist activity, reduction of glucagon-induced cAMP production in an in vitro assay; assay type: cell-based; conditions: PLA at position 6 versus positions 4 and 5
T3 construct: expressed in transfected cells; host or cells: HEK293

[9] = biological target: T1, GLP-1 receptor; assay: GLP-1 receptor activation, cAMP induction in HEK293 cells over-expressing the receptor (luciferase reporter); assay type: cell-based

T1 sequence (P43220 24-463, species assumed): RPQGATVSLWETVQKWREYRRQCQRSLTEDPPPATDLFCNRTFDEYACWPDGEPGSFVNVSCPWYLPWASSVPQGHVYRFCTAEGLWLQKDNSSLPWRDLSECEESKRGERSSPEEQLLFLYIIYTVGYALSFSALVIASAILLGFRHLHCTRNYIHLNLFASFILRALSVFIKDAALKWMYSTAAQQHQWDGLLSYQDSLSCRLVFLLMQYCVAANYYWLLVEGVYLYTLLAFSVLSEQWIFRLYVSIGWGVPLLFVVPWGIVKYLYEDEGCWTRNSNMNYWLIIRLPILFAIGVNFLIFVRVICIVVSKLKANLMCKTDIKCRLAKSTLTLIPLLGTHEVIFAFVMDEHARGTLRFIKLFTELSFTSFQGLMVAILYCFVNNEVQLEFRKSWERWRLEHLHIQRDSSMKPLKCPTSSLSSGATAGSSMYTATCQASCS
T2 sequence (P03372 whole entry, the tested form may be a part): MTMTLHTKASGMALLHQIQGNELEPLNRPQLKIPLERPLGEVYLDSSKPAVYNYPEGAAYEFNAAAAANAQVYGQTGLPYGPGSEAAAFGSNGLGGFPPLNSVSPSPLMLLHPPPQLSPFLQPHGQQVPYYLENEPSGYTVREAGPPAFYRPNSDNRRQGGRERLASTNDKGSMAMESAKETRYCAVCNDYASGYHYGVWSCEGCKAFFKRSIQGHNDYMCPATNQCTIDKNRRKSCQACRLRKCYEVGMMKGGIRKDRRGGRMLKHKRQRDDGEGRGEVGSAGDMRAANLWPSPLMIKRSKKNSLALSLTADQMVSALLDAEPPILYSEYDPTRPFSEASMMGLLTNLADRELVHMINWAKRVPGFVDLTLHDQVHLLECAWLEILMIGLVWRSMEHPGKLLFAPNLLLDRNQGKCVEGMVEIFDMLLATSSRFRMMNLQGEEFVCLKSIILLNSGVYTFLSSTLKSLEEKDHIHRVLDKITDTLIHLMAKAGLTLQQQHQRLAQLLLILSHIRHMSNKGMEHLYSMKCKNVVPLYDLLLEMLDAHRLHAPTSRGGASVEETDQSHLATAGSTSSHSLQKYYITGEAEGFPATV
T3 sequence (P47871 26-477): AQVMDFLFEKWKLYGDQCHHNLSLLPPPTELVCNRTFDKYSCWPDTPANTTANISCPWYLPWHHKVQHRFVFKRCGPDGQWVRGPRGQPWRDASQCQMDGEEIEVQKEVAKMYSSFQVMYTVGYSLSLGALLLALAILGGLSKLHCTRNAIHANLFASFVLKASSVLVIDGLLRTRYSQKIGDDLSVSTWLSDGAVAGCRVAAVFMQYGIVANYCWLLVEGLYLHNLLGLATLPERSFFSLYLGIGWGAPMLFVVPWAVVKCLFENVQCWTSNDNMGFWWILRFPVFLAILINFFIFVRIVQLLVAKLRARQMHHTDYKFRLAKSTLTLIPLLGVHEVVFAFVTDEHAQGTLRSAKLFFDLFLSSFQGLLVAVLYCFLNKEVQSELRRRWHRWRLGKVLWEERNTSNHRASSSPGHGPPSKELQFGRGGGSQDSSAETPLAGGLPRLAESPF

## CC[C@H](C)[C@H](NC(=O)[C@H](Cc1ccccc1)NC(=O)[C@H](CCC(=O)O)NC(=O)[C@H](CCCCN)NC(=O)[C@H](C)NC(=O)[C@H](C)NC(=O)[C@H](CCC(N)=O)NC(=O)[C@H](CCC(=O)O)NC(=O)[C@H](CCC(=O)O)NC(=O)[C@H](CC(C)C)NC(=O)[C@H](Cc1ccc(O)cc1)NC(=O)[C@H](CO)NC(=O)[C@H](CO)NC(=O)[C@@H](NC(=O)[C@H](CC(=O)O)NC(=O)[C@H](CO)NC(=O)[C@@H](NC(=O)[C@H](Cc1ccccc1)NC(=O)[C@@H](NC(=O)CNC(=O)[C@H](CCC(=O)O)NC(=O)C(C)(C)NC(=O)[C@@H](N)Cc1c[nH]cn1)[C@@H](C)O)[C@@H](C)O)C(C)C)C(=O)N[C@@H](C)C(=O)N[C@@H](Cc1c[nH]c2ccccc12)C(=O)N[C@@H](CC(C)C)C(=O)N[C@H](C(=O)N[C@@H](CCCCN)C(=O)NCC(=O)NCC(=O)N1CCC[C@H]1C(=O)N[C@@H](CO)C(=O)N[C@@H](CO)C(=O)NCC(=O)N[C@@H](C)C(=O)N1CCC[C@H]1C(=O)N1CCC[C@H]1C(=O)N1CCC[C@H]1C(=O)N[C@@H](CO)C(=O)N[C@@H](CCCCNC(=O)CCC(=O)Oc1ccc2c(c1)CC[C@@H]1[C@@H]2CC[C@]2(C)[C@@H](OC(C)=O)CC[C@@H]12)C(N)=O)C(C)C [GLP-1/Estrogen(3-ester)]
[1]
  EC50: 14 ± 1 pM
[2]
  IC50: 627 ± 46 pM
[3]; FIG. 9b
  fat mass: least amount of fat mass
[3]; s.c. once per day, after 7 days
  change in body weight: greatest decrease in body weight
[4]
  IC50: 198000 ± 16800 pM
[5]
  EC50: 13 ± 1 pM

## CC[C@H](C)[C@H](NC(=O)[C@H](Cc1ccccc1)NC(=O)[C@H](CCC(=O)O)NC(=O)[C@H](CCCCN)NC(=O)[C@H](C)NC(=O)[C@H](C)NC(=O)[C@H](CCC(N)=O)NC(=O)[C@H](CCC(=O)O)NC(=O)[C@H](CCC(=O)O)NC(=O)[C@H](CC(C)C)NC(=O)[C@H](Cc1ccc(O)cc1)NC(=O)[C@H](CO)NC(=O)[C@H](CO)NC(=O)[C@@H](NC(=O)[C@H](CC(=O)O)NC(=O)[C@H](CO)NC(=O)[C@@H](NC(=O)[C@H](Cc1ccccc1)NC(=O)[C@@H](NC(=O)CNC(=O)[C@H](CCC(=O)O)NC(=O)C(C)(C)NC(=O)[C@@H](N)Cc1c[nH]cn1)[C@@H](C)O)[C@@H](C)O)C(C)C)C(=O)N[C@@H](C)C(=O)N[C@@H](Cc1c[nH]c2ccccc12)C(=O)N[C@@H](CC(C)C)C(=O)N[C@H](C(=O)N[C@@H](CCCCN)C(=O)NCC(=O)NCC(=O)N1CCC[C@H]1C(=O)N[C@@H](CO)C(=O)N[C@@H](CO)C(=O)NCC(=O)N[C@@H](C)C(=O)N1CCC[C@H]1C(=O)N1CCC[C@H]1C(=O)N1CCC[C@H]1C(=O)N[C@@H](CO)C(=O)N[C@@H](CCCCNC(=O)COc1ccc2c(c1)CC[C@@H]1[C@@H]2CC[C@]2(C)[C@@H](O)CC[C@@H]12)C(N)=O)C(C)C [GLP-1/Estrogen(3-ether)]
[6]
  estrogen release in plasma: no estrogen release over 72 hours

## CSCC[C@H](NC(=O)[C@H](CC(C)C)NC(=O)[C@H](Cc1c[nH]c2ccccc12)NC(=O)[C@H](CCC(N)=O)NC(=O)[C@@H](NC(=O)[C@H](Cc1ccccc1)NC(=O)[C@H](CC(=O)O)NC(=O)[C@H](CCC(N)=O)NC(=O)[C@H](C)NC(=O)[C@H](CCCN=C(N)N)NC(=O)[C@H](CCCN=C(N)N)NC(=O)[C@H](CO)NC(=O)[C@H](CC(=O)O)NC(=O)[C@H](CC(C)C)NC(=O)[C@H](Cc1ccc(O)cc1)NC(=O)[C@H](CCCCN)NC(=O)[C@H](CO)NC(=O)[C@H](Cc1ccc(O)cc1)NC(=O)[C@H](CC(=O)O)NC(=O)[C@H](CO)NC(=O)[C@@H](NC(=O)[C@H](Cc1ccccc1)NC(=O)[C@@H](NC(=O)CNC(=O)[C@H](CCC(N)=O)NC(=O)[C@H](CO)NC(=O)[C@@H](N)Cc1c[nH]cn1)[C@@H](C)O)[C@@H](C)O)C(C)C)C(=O)N[C@@H](CC(N)=O)C(=O)N[C@H](C(=O)O)[C@@H](C)O [Glucagon]
[7]
  solubility in aqueous solution: poor solubility in aqueous solution, particularly at physiological pH

## PLA6 analog: glucagon peptide, first 5 amino acids removed from the N-terminus, remaining N-terminal amino group replaced with a hydroxyl group
[8]
  glucagon antagonist potency: appreciably more potent antagonist than glucagon analogs having a slightly extended N-terminus

## SEQ ID NO: 22: glucagon analog in which the native glutamine at position 3 is substituted with glutamic acid
[9]
  selectivity for the GLP-1 receptor over the glucagon receptor: approximately a tenfold selectivity for the GLP-1 receptor
